PubChem BioAssay (NCI)
Where “and” joins values, the source holds several entries; their conditions need not be identical. Equal values may be shown once.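 These data come from cells grown in 96-well plates and exposed to compound for 48 hours at five concentrations. GI50: concentration for 50% inhibition of growth. TGI marks complete inhibition of growth.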

Key:
Assay in all cases: NCI anticancer screen, dose series, 48 h
SF-268 CNS = test system: SF-268 CNS
T-47D breast = test system: T-47D breast
SNB-19 CNS = test system: SNB-19 CNS
RXF 393 renal = test system: RXF 393 renal
MCF7 breast = test system: MCF7 breast
LOX IMVI melanoma = test system: LOX IMVI melanoma
SK-MEL-28 melanoma = test system: SK-MEL-28 melanoma
SK-OV-3 ovarian = test system: SK-OV-3 ovarian
HS 578T breast = test system: HS 578T breast
NCI-H226 lung = test system: NCI-H226 lung
M14 melanoma = test system: M14 melanoma
A549 NSCLC = test system: A549 NSCLC
MDA-MB-231 breast = test system: MDA-MB-231 breast
CAKI-1 renal = test system: CAKI-1 renal
SF-539 CNS = test system: SF-539 CNS
U251 CNS = test system: U251 CNS
OVCAR-3 ovarian = test system: OVCAR-3 ovarian
HOP-92 NSCLC = test system: HOP-92 NSCLC
NCI-H522 lung = test system: NCI-H522 lung
BT-549 breast = test system: BT-549 breast
HL-60(TB) leukemia = test system: HL-60(TB) leukemia
MOLT-4 leukemia = test system: MOLT-4 leukemia
IGROV1 ovarian = test system: IGROV1 ovarian
HCT-116 colon = test system: HCT-116 colon
HCT-15 colon = test system: HCT-15 colon
SF-295 CNS = test system: SF-295 CNS
SNB-75 CNS = test system: SNB-75 CNS
HT29 colon = test system: HT29 colon
PC-3 prostate = test system: PC-3 prostate
SN12C renal = test system: SN12C renal
OVCAR-8 ovarian = test system: OVCAR-8 ovarian
CCRF-CEM leukemia = test system: CCRF-CEM leukemia
SK-MEL-2 melanoma = test system: SK-MEL-2 melanoma
MDA-MB-435 = test system: MDA-MB-435
SK-MEL-5 melanoma = test system: SK-MEL-5 melanoma
NCI-H460 lung = test system: NCI-H460 lung
A498 renal = test system: A498 renal
NCI-H23 lung = test system: NCI-H23 lung
NCI/ADR-RES ovarian = test system: NCI/ADR-RES ovarian
UACC-257 melanoma = test system: UACC-257 melanoma
COLO 205 colon = test system: COLO 205 colon
TK-10 renal = test system: TK-10 renal
UO-31 renal = test system: UO-31 renal
MDA-N = test system: MDA-N
786-0 renal = test system: 786-0 renal
HCC-2998 colon = test system: HCC-2998 colon
ACHN renal = test system: ACHN renal
RPMI-8226 leukemia = test system: RPMI-8226 leukemia
EKVX NSCLC = test system: EKVX NSCLC
SW-620 colon = test system: SW-620 colon
DU-145 prostate = test system: DU-145 prostate
OVCAR-4 ovarian = test system: OVCAR-4 ovarian
KM12 colon = test system: KM12 colon
OVCAR-5 ovarian = test system: OVCAR-5 ovarian
HOP-62 NSCLC = test system: HOP-62 NSCLC
UACC-62 melanoma = test system: UACC-62 melanoma
MALME-3M melanoma = test system: MALME-3M melanoma

COc1ccc(-c2c(C#N)c(N)n(C3OC(COC(C)=O)C(OC(C)=O)C(OC(C)=O)C3OC(C)=O)c(=S)c2C#N)cc1 (stereo unspecified)
TGI (SF-268 CNS): > 100 µM and 88.3 µM
TGI (T-47D breast): > 100 µM and 46.5 µM
TGI (SNB-19 CNS): > 100 µM
TGI (RXF 393 renal): 84.6 µM and 72.2 µM
TGI (MCF7 breast): > 100 µM and 60.9 µM
TGI (LOX IMVI melanoma): > 100 µM
GI50 (SK-MEL-28 melanoma): 91.5 µM and 18.6 µM
TGI (SK-MEL-28 melanoma): > 100 µM and 32.7 µM
TGI (SK-OV-3 ovarian): 78.1 µM and 85 µM
TGI (HS 578T breast): 83 µM and > 100 µM
TGI (NCI-H226 lung): > 100 µM
GI50 (M14 melanoma): > 100 µM and 28.4 µM
TGI (M14 melanoma): > 100 µM
GI50 (A549 NSCLC): 36.2 µM and > 100 µM
TGI (A549 NSCLC): > 100 µM
TGI (MDA-MB-231 breast): > 100 µM and 71.2 µM
TGI (CAKI-1 renal): > 100 µM
TGI (SF-539 CNS): 67.5 µM and > 100 µM
TGI (U251 CNS): > 100 µM
GI50 (OVCAR-3 ovarian): 44.4 µM and 15.1 µM
TGI (OVCAR-3 ovarian): > 100 µM and 32.3 µM
TGI (HOP-92 NSCLC): 82.8 µM and 49.4 µM
TGI (NCI-H522 lung): > 100 µM and 52.6 µM
TGI (BT-549 breast): 89.3 µM and 72 µM
GI50 (HL-60(TB) leukemia): > 100 µM and 27.9 µM
TGI (HL-60(TB) leukemia): > 100 µM and 48.5 µM
GI50 (MOLT-4 leukemia): > 100 µM and 37 µM
TGI (MOLT-4 leukemia): > 100 µM and 75.1 µM
GI50 (IGROV1 ovarian): > 100 µM and 31.6 µM
TGI (IGROV1 ovarian): > 100 µM
TGI (HCT-116 colon): > 100 µM
TGI (HCT-15 colon): > 100 µM
TGI (SF-295 CNS): > 100 µM
TGI (SNB-75 CNS): 63.4 µM and 50.9 µM
GI50 (HT29 colon): 84.7 µM and 36.2 µM
TGI (HT29 colon): > 100 µM
TGI (PC-3 prostate): > 100 µM
TGI (SN12C renal): > 100 µM
TGI (OVCAR-8 ovarian): > 100 µM and 75.4 µM
GI50 (CCRF-CEM leukemia): > 100 µM and 46.5 µM
TGI (CCRF-CEM leukemia): > 100 µM
TGI (SK-MEL-2 melanoma): > 100 µM and 39.8 µM
GI50 (MDA-MB-435): 44.1 µM and 13.4 µM
TGI (MDA-MB-435): > 100 µM and 26.2 µM
TGI (SK-MEL-5 melanoma): > 100 µM and 56.4 µM
TGI (NCI-H460 lung): > 100 µM
TGI (A498 renal): 91.4 µM and 63.5 µM
TGI (NCI-H23 lung): > 100 µM
TGI (NCI/ADR-RES ovarian): > 100 µM
TGI (UACC-257 melanoma): > 100 µM and 44.5 µM
GI50 (COLO 205 colon): > 100 µM and 21.2 µM
TGI (COLO 205 colon): > 100 µM and 43.2 µM
GI50 (TK-10 renal): 50.5 µM and 21.9 µM
TGI (TK-10 renal): > 100 µM and 49.3 µM
GI50 (UO-31 renal): 42.4 µM and 16.7 µM
TGI (UO-31 renal): > 100 µM and 38.9 µM
GI50 (MDA-N): 58.3 µM and 15 µM
TGI (MDA-N): > 100 µM and 28.2 µM
TGI (786-0 renal): > 100 µM and 75.5 µM
TGI (HCC-2998 colon): > 100 µM and 38.2 µM
TGI (ACHN renal): > 100 µM
TGI (RPMI-8226 leukemia): > 100 µM and 68.8 µM
TGI (EKVX NSCLC): > 100 µM
TGI (SW-620 colon): > 100 µM
GI50 (DU-145 prostate): 84.2 µM and 34 µM
TGI (DU-145 prostate): > 100 µM
TGI (OVCAR-4 ovarian): > 100 µM and 55.6 µM
GI50 (KM12 colon): > 100 µM and 36.8 µM
TGI (KM12 colon): > 100 µM
GI50 (OVCAR-5 ovarian): > 100 µM and 38.4 µM
TGI (OVCAR-5 ovarian): > 100 µM
TGI (HOP-62 NSCLC): 89.1 µM and 51.6 µM
TGI (UACC-62 melanoma): 73.4 µM and 47.3 µM
TGI (MALME-3M melanoma): > 100 µM and 75.7 µM

Cc1ccc(S(=O)(=O)N/N=C2/C3CC4CCC2C4C3)cc1 (stereo unspecified)
TGI (SF-268 CNS): > 100 µM
TGI (T-47D breast): > 100 µM
TGI (RXF 393 renal): > 100 µM
TGI (MCF7 breast): > 100 µM
TGI (LOX IMVI melanoma): > 100 µM
TGI (SK-MEL-28 melanoma): > 100 µM
TGI (SK-OV-3 ovarian): > 100 µM
TGI (HS 578T breast): > 100 µM
TGI (NCI-H226 lung): > 100 µM
TGI (M14 melanoma): > 100 µM
TGI (A549 NSCLC): > 100 µM
TGI (MDA-MB-231 breast): > 100 µM
TGI (CAKI-1 renal): > 100 µM
TGI (SF-539 CNS): > 100 µM
TGI (U251 CNS): > 100 µM
TGI (OVCAR-3 ovarian): > 100 µM
TGI (HOP-92 NSCLC): > 100 µM
TGI (NCI-H522 lung): > 100 µM
TGI (BT-549 breast): > 100 µM
TGI (IGROV1 ovarian): > 100 µM
TGI (HCT-116 colon): > 100 µM
TGI (HCT-15 colon): > 100 µM
TGI (SF-295 CNS): > 100 µM
TGI (SNB-75 CNS): > 100 µM
TGI (HT29 colon): > 100 µM
TGI (PC-3 prostate): > 100 µM
TGI (SN12C renal): > 100 µM
TGI (OVCAR-8 ovarian): > 100 µM
TGI (MDA-MB-435): > 100 µM
TGI (SK-MEL-5 melanoma): > 100 µM
TGI (NCI-H460 lung): > 100 µM
TGI (A498 renal): > 100 µM
TGI (NCI-H23 lung): > 100 µM
TGI (NCI/ADR-RES ovarian): > 100 µM
TGI (UACC-257 melanoma): > 100 µM
TGI (COLO 205 colon): > 100 µM
TGI (TK-10 renal): > 100 µM
TGI (UO-31 renal): > 100 µM
TGI (MDA-N): > 100 µM
TGI (786-0 renal): > 100 µM
TGI (HCC-2998 colon): > 100 µM
TGI (ACHN renal): > 100 µM
TGI (RPMI-8226 leukemia): > 100 µM
TGI (EKVX NSCLC): > 100 µM
TGI (SW-620 colon): > 100 µM
TGI (DU-145 prostate): > 100 µM
TGI (OVCAR-4 ovarian): > 100 µM
TGI (KM12 colon): > 100 µM
TGI (OVCAR-5 ovarian): > 100 µM
TGI (HOP-62 NSCLC): > 100 µM
TGI (UACC-62 melanoma): > 100 µM
TGI (MALME-3M melanoma): > 100 µM
